# Test results as given in US20070276034A1, “Compounds, compositions and methods for the treatment of synucleinopathies” (priority 2002, published 2007).
# Read-outs that look alike come from different tables or passages of the source.
# Key:
# Format in all cases: biochemical
# Aβ 1-42 fibrils = biological target: T1, Aβ 1-42 fibrils (Homo sapiens, UniProt P05067); test: Thioflavin T fluorometry - disruption of pre-formed Aβ 1-42 Alzheimer's fibrils; conditions: 25 μM pre-fibrillized Aβ 1-42, 37° C., 3 days; for inhibition: read-out: % Inhibition Aβ (result ± S.D.)
# T1 construct: purchased Bachem Inc
# Summary of the method: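 Pre-fibrillized Aβ1-42 (25 µM) incubated 3 days at 37 °C alone or with compound at Aβ:compound weight ratios 1:1 to 1:0.001. Remaining fibrils quantified by Thioflavin T fluorescence (ex 444/em 485 nm) in phosphate buffer pH 6.8, blank-subtracted for buffer or compound alone.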
# IAPP fibrils [1] = biological target: T2, IAPP fibrils (Homo sapiens, UniProt P10997); test: Thioflavin T fluorometry - disruption of type 2 diabetes IAPP fibrils; conditions: 25 μM pre-fibrillized IAPP, 37° C., 3 days; for inhibition: read-out: % Inhibition IAPP (result ± S.D.)
# T2 construct: purchased Bachem Inc
# T2 sequence (P10997 34-70 limits assumed): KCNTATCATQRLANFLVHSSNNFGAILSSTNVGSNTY
# Summary of the method: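 Pre-fibrillized human IAPP (25 μM) incubated 3 days at 37 °C alone or with compound at IAPP:compound weight ratios of 1:1 to 1:0.001. Mixtures then mixed with Thioflavin T in phosphate buffer pH 6.8; fluorescence read at 485 nm (ex 444 nm) after blank subtraction.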
# NAC fibrils = biological target: T3, NAC fibrils (Homo sapiens, UniProt P37840); test: Thioflavin T fluorometry - disruption of Parkinson's disease NAC fibrils; conditions: 3 days; for inhibition / % Inhibition NAC (result ± S.D.): 25 μM pre-fibrillized NAC, 37° C.; for inhibition: read-out: % Inhibition NAC (result ± S.D.); for disruption/disassembly of pre-formed NAC fibrils (in words): all concentrations tested (ratios 1:1 to 1:0.001)
# T3 construct: NAC is a 35-amino acid fragment of α-synuclein; purchased Bachem Inc
# Protocol: In this assay, Thioflavin T binds specifically to NAC fibrils, and this binding produces a fluorescence enhancement at 485 nm that is directly proportional to the amount of NAC fibrils present. The higher the fluorescence, the greater the amount of NAC fibrils present (Naki et al, Lab. Invest. 65:104-110, 1991; Levine III, Protein Sci. 2:404-410, 1993; Amyloid: Int. J. Exp. Clin. Invest. 2:1-6, 1995).
# In this study, 25 μM of pre-fibrillized NAC (Bachem Inc) was incubated at 37° C. for 3 days either alone or in the presence of dihydroxy synthetic analog compounds #1, 3, 23, 26, 52, 63, 66, 67, or EDTA (at NAC:test compound weight ratios of 1:1, 1:0.1, 1:0.01 or 1:0.001). Following 3-days of co-incubation, 50 βl of each incubation mixture was transferred into a 96-well microtiter plate containing 150 μl of distilled water and 50 μl of a Thioflavin T solution (i.e. 500 mM Thioflavin T in 250 mM phosphate buffer, pH 6.8). The fluorescence was read at 485 nm (444 nm excitation wavelength) using an ELISA plate fluorometer after subtraction with buffer alone or compound alone, as blank.
# IAPP fibrils [2] = biological target: T2, IAPP fibrils; test: Congo red binding assay with IAPP fibrils; conditions: 3-day incubation
# Summary of the method: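 Congo red staining of washed 0.2 μm filters measured the aggregated IAPP retained after a 3-day co-incubation with compound or EDTA. Weight ratios IAPP:compound were 1:1, 1:0.1, 1:0.01 or 1:0.001; loss of color relative to compound-free IAPP was scored.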
# monomeric Aβ 1-42 = biological target: T4, monomeric Aβ 1-42 (Homo sapiens, UniProt P05067); test: SDS-PAGE/Western blot of Aβ 1-42 after incubation with compounds; conditions: 25 μM pre-fibrillized Aβ 1-42, 37° C., 3 days, 0.2 μm filtrate, antibody 6E10
# T4 construct: purchased Bachem Inc
# Protocol: In this latter study, triplicate samples of pre-fibrillized Aβ 1-42 (25 μM) was incubated at 37° C. for 3 days, alone or in the presence of the compounds or EDTA. Five micrograms of each sample was then filtered through a 0.2 μm filter. Protein recovered from the filtrate was then loaded, and ran on a 10-20% Tris-Tricine SDS-PAGE, blotted to nitrocellulose and detected using an Aβ-antibody (clone 6E10; Senetek).
# [3] = Aβ:test compound wt/wt ratio 1:0.001
# [4] = Aβ:test compound wt/wt ratio 1:0.01
# [5] = Aβ:test compound wt/wt ratio 1:0.1
# [6] = Aβ:test compound wt/wt ratio 1:1
# [7] = IAPP:test compound wt/wt ratio 1:0.001
# [8] = IAPP:test compound wt/wt ratio 1:0.01
# [9] = IAPP:test compound wt/wt ratio 1:0.1
# [10] = IAPP:test compound wt/wt ratio 1:1
# [11] = NAC:test compound wt/wt ratio 1:0.001
# [12] = NAC:test compound wt/wt ratio 1:0.01
# [13] = NAC:test compound wt/wt ratio 1:0.1
# [14] = NAC:test compound wt/wt ratio 1:1
# T1 sequence (P05067 672-713): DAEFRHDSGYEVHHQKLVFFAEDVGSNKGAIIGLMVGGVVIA
# T4 sequence (P05067 672-713): as above
Compound,inhibition (Aβ 1-42 fibrils; [3]),inhibition (Aβ 1-42 fibrils; [4]),inhibition (Aβ 1-42 fibrils; [5]),inhibition (Aβ 1-42 fibrils; [6]),inhibition (IAPP fibrils [1]; [7]),inhibition (IAPP fibrils [1]; [8]),inhibition (IAPP fibrils [1]; [9]),inhibition (IAPP fibrils [1]; [10]),inhibition (NAC fibrils; [11]),inhibition (NAC fibrils; [12]),inhibition (NAC fibrils; [13]),inhibition (NAC fibrils; [14]),"% Inhibition IAPP (result ± S.D.), Congo red binding (IAPP fibrils [2]; [7])","% Inhibition IAPP (result ± S.D.), Congo red binding (IAPP fibrils [2]; [8])","% Inhibition IAPP (result ± S.D.), Congo red binding (IAPP fibrils [2]; [9])","% Inhibition IAPP (result ± S.D.), Congo red binding (IAPP fibrils [2]; [10])",disruption/disassembly of pre-formed NAC fibrils (in words) (NAC fibrils),other results
"O=C(N[C@@H]1CCCC[C@H]1NC(=O)c1ccc(O)c(O)c1)c1ccc(O)c(O)c1 (relative stereo) [Compound 26, N,N′-bis(3,4-dihydroxybenzoyl)-trans-1,2-diaminocyclohexane]",0%,0%,11.7 ± 3.67%,37.8 ± 5.5%,3.7 ± 4.67%,24.6 ± 6.77%,45.9 ± 17.7%,52.5 ± 2.44%,0%,56.8 ± 4.6%,61.3 ± 6.52%,70.4 ± 3.22%,10.8 ± 2.63%,5.3 ± 6.14%,7.5 ± 2.83%,0.0 ± 1.21%,,
"O=C(c1ccc(O)c(O)c1)C(O)c1ccc(O)c(O)c1 (centres unmarked) [Compound 1, 3,4,3′,4′-tetrahydroxybenzoin]",0%,19.2 ± 4.31%,64.8 ± 1.98%,97.3 ± 0.23%,6.4 ± 4.4%,57.3 ± 0.16%,93 ± 1.27%,99 ± 0.11%,0%,68.2 ± 2.55%,99.5 ± 0.53%,100 ± 1%,,18.6 ± 4.05%,10.6 ± 3.40%,40.7 ± 2.49%,dose-dependent disruption/disassembly,
"Oc1ccc(Cc2ccc(O)c(O)c2)cc1O [Compound 3, 3,4,3′,4′-tetrahydroxydiphenylmethane]",,,,,,,,,,,,,11.1 ± 5.26%,16.3 ± 1.13%,37.9±3.10%,55.5±2.68%,dose-dependent disruption/disassembly,% Inhibition Aβ (result ± S.D.) (Aβ 1-42 fibrils; [3]): 5.5 ± 1.99%; % Inhibition Aβ (result ± S.D.) (Aβ 1-42 fibrils; [4]): 53.1 ± 1.67%; % Inhibition Aβ (result ± S.D.) (Aβ 1-42 fibrils; [5]): 57.8±6.36%; % Inhibition Aβ (result ± S.D.) (Aβ 1-42 fibrils; [6]): 99.5 ± 0.10%; % Inhibition IAPP (result ± S.D.) (IAPP fibrils [1]; [7]): 30.7 ± 6.71%; % Inhibition IAPP (result ± S.D.) (IAPP fibrils [1]; [8]): 79.9±1.47%; % Inhibition IAPP (result ± S.D.) (IAPP fibrils [1]; [9]): 97.7±0.19%; % Inhibition IAPP (result ± S.D.) (IAPP fibrils [1]; [10]): 100 ± 0.20%; % Inhibition NAC (result ± S.D.) (NAC fibrils; [11]): 67.3 ± 6.37%; % Inhibition NAC (result ± S.D.) (NAC fibrils; [12]): 93.9±0.77%; % Inhibition NAC (result ± S.D.) (NAC fibrils; [13]): 91.0±1.99%; % Inhibition NAC (result ± S.D.) (NAC fibrils; [14]): 98.0 ± 1.78%
"O=C(NCc1ccc(O)c(O)c1)C(=Cc1ccc(O)c(O)c1)NC(=O)c1ccc(O)c(O)c1 [Compound 21, α-(3,4-dihydroxybenzamido)-3,4-dihydroxycinnamic acid 3,4-dihydroxybenzyl amide]",8.9 ± 2.13%,48.2 ± 8.29%,81 ± 1.31%,98.6 ± 0.54%,5.4 ± 15.4%,25.8 ± 3.61%,85.4 ± 0.86%,98.5 ± 0.06%,,,,,0.0 ± 2.10%,5.1 ± 4.53%,10.4 ± 3.53%,35.9 ± 0.21%,,detection of Aβ 1-42 monomers (~4 kilodalton band) on Western blot (monomeric Aβ 1-42): not detected
"O=C(c1ccc(O)c(O)c1)N1CCN(C(=O)c2ccc(O)c(O)c2)CC1 [Compound 23, 1,4-bis(3,4-dihydroxybenzoyl)piperazine]",0%,16.5 ± 4.02%,26.2 ± 4.37%,46.7 ± 4.62%,27.3 ± 45.4%,44.3 ± 32.5%,67.2 ± 18.4%,85.2 ± 0.55%,0%,35.6 ± 9.73%,,58 ± 8.43%,5.1 ± 2.45%,9.3 ± 1.40%,4.5 ± 4.12%,5.5 ± 2.33%,,
"O=C(Nc1ccc(O)c(O)c1)C(=O)Nc1ccc(O)c(O)c1 [Compound 63, oxalic acid bis(3,4-dihydroxyanilide)]",1.6 ± 9.47%,57.5 ± 10.6%,23.6 ± 25.8%,85.3 ± 0.91%,19 ± 0.3%,56.2 ± 8.77%,84.2 ± 1.16%,94.9 ± 0.65%,17.3 ± 12.6%,33 ± 1.69%,,45.6 ± 31%,0.0 ± 2.25%,11.7 ± 2.26%,4.5 ± 1.62%,15.4 ± 1.34%,dose-dependent disruption/disassembly,
"O=C(CCC(=O)NCc1ccc(O)c(O)c1)NCc1ccc(O)c(O)c1 [Compound 67, succinic acid bis(3,4-dihydroxybenzylamide)]",13.7 ± 6.05%,34 ± 14.1%,50.9 ± 8.32%,98.3 ± 2.19%,16.1 ± 12.4%,34.8 ± 1.87%,81.4 ± 6.96%,98.6 ± 0.22%,11.9 ± 16%,30.6 ± 5.75%,50 ± 7.03%,97.4 ± 1.19%,0.0 ± 3.45%,10.6 ± 1.29%,5.5 ± 2.52%,26.3 ± 2.76%,dose-dependent disruption/disassembly,
